These are literature values, as cited in patent US12318470B2, “Agent for dyeing keratinuos material, comprising aminosilicone, a chromophoric compound and an addition product of C1-C6 alkylene oxide(s) to the esters of fatty acids and aromatic alcohols” (Henkel AG & Co. KGaA, priority 2020, dated 2025).

The conditions of series [1]: 25° C.
For series [2] the following is noted: 5% solution in water.

For the compound `O=S(=O)([O-])c1ccc(N=Nc2c(O)ccc3ccccc23)cc1.[Na+]` [Acid Orange 7, sodium salt of 4-[(2-hydroxy-1-naphthyl)azo]benzene sulphonate], in series [1], the solubility in water entry is “more than 7 g/L”.

`Nc1cc(S(=O)(=O)[O-])cc2cc(S(=O)(=O)[O-])c(N=Nc3ccccc3)c(O)c12.[Na+].[Na+]` [Acid Red 33, diantrium salt of 5-amino-4-hydroxy-3-(phenylazo)-naphthalene-2,7-disulphonate]: in series [1], the solubility in water is 2500 µg/mL.

On to `O=C([O-])c1c(Cl)c(Cl)c(Cl)c(Cl)c1-c1c2c(Br)cc(=O)c(Br)c-2oc2c(Br)c(O)cc(Br)c12.O=C([O-])c1c(Cl)c(Cl)c(Cl)c(Cl)c1-c1c2c(Br)cc(=O)c(Br)c-2oc2c(Br)c(O)cc(Br)c12.[Na+].[Na+]` [Acid Red 92, disodium salt of 3,4,5,6-tetrachloro-2-(1,4,5,8-tetrabromo-6-hydroxy-3-oxoxanthen-9-yl)benzoic acid], for which the solubility in water result in series [1] was “greater than 10 g/L”.

In the case of `O=C([O-])C1=NN(c2ccc(S(=O)(=O)[O-])cc2)C(=O)C1N=Nc1ccc(S(=O)(=O)[O-])cc1.[Na+].[Na+].[Na+]` (centres unmarked) [Acid Yellow 23, trisodium salt of 4,5-dihydro-5-oxo-1-(4-sulfophenyl)-4-((4-sulfophenyl)azo)-1H-pyrazole-3-carboxylic acid], the “solubility in water (in words)” value in series [1] is “readily soluble”.

Consider `O=P([O-])(O)O.[K+]` [Potassium dihydrogen phosphate], for which the “pH value of solution in water” value in series [2] was 4.4.
